Laboratory results reported in patent US6630326B2, “Cancer diagnosis and therapy based on mutations in TGF-β receptors” (Case Western Reserve University, priority 1995, dated 2003).
“Also recorded” adds a separate entry of the source.

Experiments:
[1] = system: RII protein expression in MCF-7, ZR-75, and T-47D; experiment: 125I-TGFβ cross-link assay for cell surface RII protein after 5-Azacytidine treatment; type: cell-based, human; details: MCF-7, ZR-75, T-47D; 2.5-5.0 μM 5-Azacytidine; after 8 days
From the text: A preferred method of detecting the presence of functional RII is by TGFβ binding assay in which labelled TGFβ binds to RII followed by cross-linking and measurement of the amount of label linked to RII protein. Details of this assay have been published in Sun, et al., incorporated herein by reference. Briefly, cell surface receptors may be detected by cross-linking in situ to ^125I labelled TGFβ followed by separation on SDS-PAGE and visualization by autoradiography as described in Example 3 below.
To assay for expression of cell surface TGFβ receptors, we performed cross-linking experiments with ^125I-labeled TGFβ. Cell surface TGFβ receptors were labeled by cross-linking to ^125I-labeled human TGFβ1 as described in Sun, L., et al., 1994 (J. Biol. Chem., 269:26449). Labeled receptors were resolved by SDS-polyacrylamide gel electrophoresis and visualized by autoradiography. There was no detectable ^125I-TGFβ binding to any of eight tested RER^+ cell lines with reduced amounts of RII transcript (FIG. 3). The absence of RI surface receptors in these lines (FIG. 3) is consistent with previous reports that RII receptor is required for TGFβ binding to RI (Wrana, J., et al., 1992, Cell, 71:1003; Sun, L., et al., 1994, J. Biol. Chem., 269:26449). […]

[2] = system: RII expression in MCF-7, ZR-75, and T-47D; experiment: RNase protection assay for RII transcript after 5-Azacytidine treatment; type: cell-based, human; details: ER+ breast cancer cell lines MCF-7, ZR-75, T-47D; 2.5-5.0 μM 5-Azacytidine; after 8 days
From the text: A preferred method for detecting loss of mRNA is based on RNase protection. Details of this assay have been published in Sun, et al. Briefly the RNase protection assay measures the amount of RII mRNA in a sample by measuring the amount of RNA which binds to a radioactive antisense RII RNA probe. The radioactive antisense RII RNA probe is produced in a test tube, for example from a plasmid which carries 264 bp for RII cDNA (NarI-PstI) cloned downstream of a T3 RNA polymerase site from which the RNA can be transcribed. Usually, a control human probe such as γ-actin RNA is also prepared from a similar plasmid. The probes are hybridized overnight at room temperature in a guanidine buffer with RNA extracted from tumor cells. The next morning probe RNA which is not protected by binding to authentic RII transcript is destroyed by digestion with RNase A+T1. Protected probe RNA is separated from the reaction by electrophoresis on a urea-acrylamide gel and visualized by autoradiography.
Expression of RI and RII transcripts was examined in 38 human colon tumor cell lines using a ribonuclease (RNase) protection assay as described above (see also Sun, et al., 1994). Total RNA (40 μg) from each sample was hybridized overnight in a single reaction to probes for RI, RII and human γ-actin. […]

[3] = system: colon cells with intact TGFβ receptors; experiment: TGFβ-induced cell death in colon cells; type: cell-based; details: colon cells with intact TGFβ receptors exposed to TGFβ
From the text: Thus, therapeutic effects of restoring an active RII in colon cancer cells will include restoring normal cell death pathways. RII gene therapy is thus useful in combination with and to sensitize cells to conventional cytotoxic radiation or chemotherapy.

Compound	RII protein expression (125I-TGFβ cross-link) [1]	RII expression (RNase protection assay) [2]	induction of cell death (apoptosis) [3]
Nc1ncn([C@@H]2O[C@H](CO)[C@@H](O)[C@H]2O)c(=O)n1 [5-Azacytidine]	RII protein expression was confirmed	restored RII expression; also recorded: RII expression by the treated cells was demonstrated	–
TGFβ: transforming growth factor beta, natural inhibitor of growth of human epithelial cells	–	–	induce cell death
